Read-outs that look alike come from different tables or passages of the source.
Assays:
P. falciparum 3D7 = experiment: In-vitro inhibition potency against Plasmodium falciparum, 72 hours, nucleic acid dye; format: cell-based
Experimental: (§1) The volume was filled up to 1 L with ultrapure water, the pH adjusted to 7.2, subjected to sterilized filtration by using a 0.22 μm filtration membrane, and stored at 4° C. to obtain a complete culture medium; the incomplete medium was composed of 10.43 g of 1640 dry powder (GIBCO, 31800022), 5.96 g of Hepes, 2 g of sodium bicarbonate, 0.292 g of L-glutamine, 3.96 g of glucose, […] of hypoxanthine and 2.5 mg of gentamicin, prepared by the same method as for the complete culture medium. • (2) Drugs and formulations: pure decoquinate was dissolved in DMSO as a stock solution, chloroquine was dissolved in PBS, and artemisinin was dissolved in DMSO and then diluted with PBS. […] Before the experiment, all the above dissolved drug solutions were then diluted to series of 10 gradient concentrations with the incomplete medium. • (3) Culture and assay method: Plasmodium falciparum was cultured in the complete culture medium, and human red blood cells (RBC) were preserved in the incomplete culture medium. […] The culture was incubated at 37° C. in 5% CO2 for 72 hours, then nucleic acid dye was added, and the […] measured in a microplate reader. The half-maximal inhibitory concentration (IC50) of drugs was calculated with Graph Pad software, that is, the concentration when the inhibition rate of antimalarial drugs to P. falciparum reached 50% was calculated.

P. falciparum Dd2 = experiment: as above; format: cell-based
Experimental: as §1

[1] = cited from earlier work
[2] = 3D7, chloroquine-sensitive strain, liposome values are decoquinate concentrations, read-out: IC50 P. falciparum 3d7 Mean ± S.D.
[3] = DD2, multidrug-resistant (including chloroquine) strain, liposome values are decoquinate concentrations, read-out: IC50 P. falciparum Dd2 Mean ± S.D.

IC50 (P. falciparum 3D7; [2]) [µM] | IC50 (P. falciparum Dd2; [3]) [µM] | Compound | IC50 (P. falciparum 3D7; 3D7, read-out: IC50 P. falciparum 3d7 Mean ± S.D.) [µM] | IC50 (P. falciparum Dd2; DD2, read-out: IC50 P. falciparum Dd2 Mean ± S.D.) [µM] | Solubility in ethanol ([1]; ethanol) | Solubility in water ([1]; water)
0.0164 ± 0.0058 | 0.0185 ± 0.0005 | C[C@@H]1CC[C@H]2[C@@H](C)C(=O)O[C@@H]3O[C@@]4(C)CC[C@@H]1[C@]32OO4 [Artemisinin, artemisinin] |  |  |  | 
 |  | CCN(CC)CCCC(C)Nc1ccnc2cc(Cl)ccc12 (centres unmarked) [Chloroquine, chloroquine] | 0.02375 ± 6e-05 | 0.185 ± 0.0162 |  | 
0.00163 ± 0.00013 | 0.00157 ± 0.00049 | CCCCCCCCCCOc1cc2c(O)c(C(=O)OCC)cnc2cc1OCC [Pure DQ, ethyl 6-decyloxy-7-ethoxy-4-hydroxyquinoline-3-carboxylate] |  |  | slightly soluble | practically insoluble
